Structures can show the parent of a compound that is named as a salt.

T1 sequence (Q9Y5N1 whole entry): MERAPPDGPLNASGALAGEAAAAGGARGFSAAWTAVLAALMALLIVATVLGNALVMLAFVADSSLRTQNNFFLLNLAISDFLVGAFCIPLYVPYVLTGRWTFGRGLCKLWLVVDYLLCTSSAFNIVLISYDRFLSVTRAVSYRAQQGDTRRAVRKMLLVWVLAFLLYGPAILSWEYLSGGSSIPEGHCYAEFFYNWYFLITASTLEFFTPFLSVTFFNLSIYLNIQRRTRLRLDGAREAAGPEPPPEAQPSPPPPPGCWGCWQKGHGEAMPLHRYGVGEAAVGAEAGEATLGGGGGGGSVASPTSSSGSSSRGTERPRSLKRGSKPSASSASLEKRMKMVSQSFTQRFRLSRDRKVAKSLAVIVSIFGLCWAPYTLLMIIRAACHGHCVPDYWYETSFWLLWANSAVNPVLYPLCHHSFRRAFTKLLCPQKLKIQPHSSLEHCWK

One assay has as its target T1, cloned human H3 receptors (Homo sapiens, UniProt Q9Y5N1).
T1 construct: expressed in transfected cells
Kind of assay: H3 Receptor Binding (Human). The following applies: bromo-pyridine intermediates (Step A), value given in the synthesis; read-out: Assay 1 (Human H3): Ki. The protocol: H3 Receptor Binding (Human)
Binding of compounds to the cloned human H3 receptors, stably expressed in SK-N-MC cells, was performed as described by Barbier, A. J. et al. (Br. J. Pharmacol. 2004, 143(5), 649-661).
In the case of `CC(C)N1CCCN(C(=O)c2cccc(Br)n2)CC1` [(6-Bromo-pyridin-2-yl)-(4-isopropyl-[1,4]diazepan-1-yl)-methanone], the Ki (commonly the dissociation constant of the complex between target and ligand, obtained from inhibition or displacement) was 752 nM.

Take `CC(C)N1CCN(C(=O)c2cccc(Br)n2)CC1` [(6-Bromo-pyridin-2-yl)-(4-isopropyl-piperazin-1-yl)-methanone]: the Ki came to 1400 nM. Same read-out and setting: as for `O=C(c1cccc(Br)n1)N1CCCN(C2CCC2)CC1` [(6-Bromo-pyridin-2-yl)-(4-cyclobutyl-[1,4]diazepan-1-yl)-methanone], the figure is 33 nM; as for `CC(C)N1CCCN(C(=O)c2ccc(Br)cn2)CC1` [(5-Bromo-pyridin-2-yl)-(4-isopropyl-[1,4]diazepan-1-yl)-methanone], 194 nM; as for `O=C(c1cccc(Br)n1)N1CCCN(C2CC2)CC1` [(6-Bromo-pyridin-2-yl)-(4-cyclopropyl-[1,4]diazepan-1-yl)-methanone], 431 nM.

Still in this assay, the particulars now being: cloned human H3 receptors stably expressed in SK-N-MC cells; average of the results obtained; read-out: Human H3 Ki.
For the compound `CSc1ccc(Oc2ccc(C(=O)N3CCCN(C4CC4)CC3)nc2C#N)cc1` [Example 55, 6-(4-Cyclopropyl-[1,4]diazepane-1-carbonyl)-3-(4-methylsulfanyl-phenoxy)-pyridine-2-carbonitrile], the Ki was 21 nM. The same measure, in the same setting: the result for `CC(C)N1CCN(C(=O)c2ccc(Oc3ccc(F)cc3)nc2)CC1` [Example 99, [6-(4-Fluoro-phenoxy)-pyridin-3-yl]-(4-isopropyl-piperazin-1-yl)-methanone] reads 28 nM; that for `O=C(c1cccc(Oc2ccc(Cl)c(Cl)c2)n1)N1CCCN(C2CCC2)CC1` [Example 45, (4-Cyclobutyl-[1,4]diazepan-1-yl)-[6-(3,4-dichloro-phenoxy)-pyridin-2-yl]-methanone], 34 nM; that for `N#Cc1nc(C(=O)N2CCCN(C3CCC3)CC2)ccc1Oc1ccc(F)cc1` [Example 82, 6-(4-Cyclobutyl-[1,4]diazepane-1-carbonyl)-3-(4-fluoro-phenoxy)-pyridine-2-carbonitrile], 1 nM.

For the compound `CC(C)N1CCCN(C(=O)c2ccc(Oc3ccc(Cl)c(Cl)c3)nc2)CC1` [Example 15, [6-(3,4-Dichloro-phenoxy)-pyridin-3-yl]-(4-isopropyl-[1,4]diazepan-1-yl)-methanone], the Ki came out at 8 nM. On the same count and under the same terms, the result for `CSc1ccc(Oc2ccc(C(=O)N3CCN(C(C)C)CC3)cn2)cc1` [Example 3, (4-Isopropyl-piperazin-1-yl)-[6-(4-methylsulfanyl-phenoxy)-pyridin-3-yl]-methanone] reads 66 nM. Still for that read-out and setting: as for `CC(C)N1CCN(C(=O)c2ccc(Oc3ccc(Cl)c(Cl)c3)c(C#N)n2)CC1` [Example 53, 3-(3,4-Dichloro-phenoxy)-6-(4-isopropyl-piperazine-1-carbonyl)-pyridine-2-carbonitrile trifluoroacetic acid salt], the figure is 49 nM; as for `O=C(c1ccc(Oc2ccc(F)cc2)nc1)N1CCN(C2CCC2)CC1` [Example 79, (4-Cyclobutyl-piperazin-1-yl)-[6-(4-fluoro-phenoxy)-pyridin-3-yl]-methanone], 10 nM; as for `CN1CCCN(C(=O)c2ccc(Oc3ccc(F)cc3)nc2)CC1` [Example 92, [6-(4-Fluoro-phenoxy)-pyridin-3-yl]-(4-methyl-[1,4]diazepan-1-yl)-methanone], 250 nM. Same read-out and setting: as for `O=C(c1cccc(Oc2ccc(Cl)c(Cl)c2)n1)N1CCCN(C2CC2)CC1` [Example 44, (4-Cyclopropyl-[1,4]diazepan-1-yl)-[6-(3,4-dichloro-phenoxy)-pyridin-2-yl]-methanone], the figure is 327 nM. For `CC(C)N1CCN(C(=O)c2ccc(Oc3ccc(Cl)c(Cl)c3)c(C(N)=O)n2)CC1` [Example 54, 3-(3,4-Dichloro-phenoxy)-6-(4-isopropyl-piperazine-1-carbonyl)-pyridine-2-carboxylic acid amide trifluoroacetic acid salt], the Ki amounted to 104 nM. Take `CC(C)N1CCN(C(=O)c2cccc(Oc3ccc(Cl)c(Cl)c3)n2)CC1` [Example 43, [6-(3,4-Dichloro-phenoxy)-pyridin-2-yl]-(4-isopropyl-piperazin-1-yl)-methanone]: the Ki came to 299 nM. `O=C(c1ccc(Oc2ccc(F)cc2)cn1)N1CCCN(C2CCC2)CC1` [Example 69, (4-Cyclobutyl-[1,4]diazepan-1-yl)-[5-(4-fluoro-phenoxy)-pyridin-2-yl]-methanone trifluoroacetic acid salt]: the Ki was 2 nM. Still for that read-out and setting: the result for `CC(C)N1CCCN(C(=O)c2ccc(Oc3cccc(F)c3)nc2)CC1` [Example 38, [6-(3-Fluoro-phenoxy)-pyridin-3-yl]-(4-isopropyl-[1,4]diazepan-1-yl)-methanone] reads 6 nM; that for `Cc1cc(Oc2cccc(C(=O)N3CCCN(C4CC4)CC3)n2)ccc1Cl` [Example 47, [6-(4-Chloro-3-methyl-phenoxy)-pyridin-2-yl]-(4-cyclopropyl-[1,4]diazepan-1-yl)-methanone trifluoroacetic acid salt], 357 nM. Regarding `O=C(c1ccc(Oc2ccccc2F)nc1)N1CCN(C2CCCC2)CC1` [Example 78], the Ki was 24 nM. The same measure, in the same setting: as for `Cc1cc(Oc2ccc(C(=O)N3CCCN(C4CCC4)CC3)cn2)ccc1Cl` [Example 16, [6-(4-Chloro-3-methyl-phenoxy)-pyridin-3-yl]-(4-cyclobutyl-[1,4]diazepan-1-yl)-methanone], the figure is 2 nM; as for `NC(=O)c1nc(C(=O)N2CCCN(C3CC3)CC2)ccc1Oc1cccnc1` [Example 63, 6-(4-Cyclopropyl-[1,4]diazepane-1-carbonyl)-3-(pyridin-3-yloxy)-pyridine-2-carboxylic acid amide], 32 nM.

Regarding `CC(C)N1CCN(C(=O)c2ccc(Oc3cccnc3)nc2)CC1` [Example 2, (4-Isopropyl-piperazin-1-yl)-[6-(pyridin-3-yloxy)-pyridin-3-yl]-methanone], the Ki came to 56 nM. Same read-out and setting: the result for `CC(C)N1CCN(C(=O)c2ccc(Oc3ccc(Cl)c(Cl)c3)c(CN)n2)CC1` [Example 64, [6-Aminomethyl-5-(3,4-dichloro-phenoxy)-pyridin-2-yl]-(4-isopropyl-piperazin-1-yl)-methanone trifluoroacetic acid salt] reads 165 nM; that for `O=C(c1ccc(Oc2ccc(Cl)cc2)nc1)N1CCN(C2CCCC2)CC1` [Example 77, [6-(4-Chloro-phenoxy)-Pyridin-3-yl]-(4-cyclopentyl-piperazin-1-yl)-methanone], 22 nM; that for `CC(C)N1CCN(C(=O)c2ccc(Oc3ccccc3)nc2)CC1` [Example 5, (4-Isopropyl-piperazin-1-yl)-(6-phenoxy-pyridin-3-yl)-methanone], 71 nM. `CC(C)N1CCCN(C(=O)c2ccc(Oc3ccc(Cl)c(Cl)c3)cn2)CC1` [Example 50, [5-(3,4-Dichloro-phenoxy)-pyridin-2-yl]-(4-isopropyl-[1,4]diazepan-1-yl)-methanone trifluoroacetic acid salt]: the Ki was found to be 18 nM.

In the case of `CN1CCCN(C(=O)c2ccc(Oc3ccc(F)cc3)nc2)CC1` [Example 80, [6-(4-Fluoro-phenoxy)-pyridin-3-yl]-(4-methyl-[1,4]diazepan-1-yl)-methanone], the Ki was 253 nM.

On to `O=C(c1ccc(Oc2ccccc2Cl)nc1)N1CCN(C2CCCC2)CC1` [Example 76, [6-(2-Chloro-phenoxy)-Pyridin-3-yl]-(4-cyclopentyl-piperazin-1-yl)-methanone], for which the Ki was 19 nM. In the case of `N#Cc1nc(C(=O)N2CCCN(C3CC3)CC2)ccc1Oc1ccc(Cl)c(Cl)c1` [Example 58, 6-(4-Cyclopropyl-[1,4]diazepane-1-carbonyl)-3-(3,4-dichloro-phenoxy)-pyridine-2-carbonitrile], the Ki is 10 nM. The same measure, in the same setting: as for `CC(C)N1CCN(C(=O)c2ccc(Oc3ccc(F)c(F)c3)nc2)CC1` [Example 28, [6-(3,4-Difluoro-phenoxy)-pyridin-3-yl]-(4-isopropyl-piperazin-1-yl)-methanone], the figure is 13 nM; as for `Cc1cccc(Oc2ccc(C(=O)N3CCCN(C4CCC4)CC3)cn2)c1` [Example 103, (4-Cyclobutyl-[1,4]diazepan-1-yl)-(6-m-tolyloxy-pyridin-3-yl)-methanone], 1 nM; as for `CC(C)N1CCN(C(=O)c2ccc(Oc3ccc(Cl)cc3)nc2)CC1` [Example 8, [6-(4-Chloro-phenoxy)-pyridin-3-yl]-(4-isopropyl-piperazin-1-yl)-methanone], 68 nM.

Regarding `CCN1CCCN(C(=O)c2ccc(Oc3ccc(F)cc3)nc2)CC1` [Example 98, (4-Ethyl-[1,4]diazepan-1-yl)-[6-(4-fluoro-phenoxy)-pyridin-3-yl]-methanone], the Ki was determined as 19 nM. The same measure, in the same setting: as for `O=C(c1ccc(Oc2ccc(F)cc2)nc1)N1CCN(C2CC2)CC1` [Example 22, (4-Cyclopropyl-piperazin-1-yl)-[6-(4-fluoro-phenoxy)-pyridin-3-yl]-methanone], the figure is 180 nM; as for `CC(C)N1CCN(C(=O)c2ccc(Oc3ccccc3Cl)nc2)CC1` [Example 75, [6-(2-Chloro-phenoxy)-pyridin-3-yl]-(4-isopropyl-piperazin-1-yl)-methanone], 9 nM; as for `N#Cc1nc(C(=O)N2CCCN(C3CC3)CC2)ccc1Oc1cccc(F)c1` [Example 60, 6-(4-Cyclopropyl-[1,4]diazepane-1-carbonyl)-3-(3-fluoro-phenoxy)-pyridine-2-carbonitrile], 29 nM. The same measure, in the same setting: the result for `O=C(c1ccc(Oc2cc(F)ccc2F)nc1)N1CCCN(C2CC2)CC1` [Example 34, (4-Cyclopropyl-[1,4]diazepan-1-yl)-[6-(2,5-difluoro-phenoxy)-pyridin-3-yl]-methanone] reads 5 nM. Consider `O=C(c1ccc(Oc2ccccc2F)cn1)N1CCCN(C2CCC2)CC1` [Example 72, (4-Cyclobutyl-[1,4]diazepan-1-yl)-[5-(2-fluoro-phenoxy)-pyridin-2-yl]-methanone], for which the Ki came to 2 nM.

The record behind these values is patent US8940731B2, “Substituted pyridyl amide compounds as modulators of the histamine H3 receptor” (Janssen Pharmaceutica NV, priority 2006, dated 2015).
